Test results taken from patent US10765690B2, “TLR4 agonists and compositions thereof and their use in the treatment of cancer” (GlaxoSmithKline Intellectual Property Development Limited, priority 2015, dated 2020).
Values joined by “and” are separate entries in the source; they are usually repeats but may differ in a detail not shown here. Equal entries are not always repeated.

Tested on: Murine CT-26 colon carcinoma cells
Test: CT-26 syngeneic colon carcinoma model, intratumoral or intravenous monotherapy (Example 10, studies 1-3)
Format: in vivo, Balb/c mice
Protocol: The in vivo anti-tumor efficacy of the TLR4 agonist (CRX-601) was assessed in the murine CT-26 colon carcinoma syngeneic solid tumor model as a monotherapy and in combination with […] a therapeutic antibody (combination data not shown). Seven to eight week old female Balb/c mice (BALB/cAnNCrl, Charles River) were used in these studies. Murine CT-26 colon carcinoma cells (ATCC catalog number CRL-2638 lot #59227052) were cultured in RPMI growth medium supplemented with 10% fetal bovine serum (FBS) in a humidified 37° C. incubator with 5% CO2, CT-26 cells cultured in logarithmic growth were harvested from tissue culture flasks and centrifuged for 5 minutes at 450×g at 4° C. for ten minutes to pellet cells. The supernatant was discarded, and cells were washed in ice cold phosphate buffered saline (PBS) without calcium and magnesium and centrifuged again for 5 minutes at 450×g at 4° C. for ten minutes to pellet cells. The cells were resuspended in sterile RPMI media without FBS and adjusted to a cell concentration of 500,000 cells/ml, 100 μl of the cell stock was implanted via subcutaneous injection into the right flank of each Balb/c mouse. After ten or eleven days when the average tumor size reached approximately 100 mm^3, mice were randomized into study cohorts according to tumor size and the first treatment dose was given. The TLR4 agonist (CRX-601) or vehicle was dosed via a systemic intravenous or direct intratumoral injection as indicated. The CRX-601 vehicle used for intravenous and intratumoral dosing was […] where indicated. For CRX-601 liposomal intratumoral dosing, a DOPC/CHOL liposome prepared by GSK Lot #1783-157-B was used. The therapeutic antibody was dosed via an intraperitoneal injection given twice per week for a total of six doses. Caliper measurements were taken three times per week to assess tumor growth, and mice with tumors <2,000 mm^3 were maintained on study from 30 up to approximately 115 days. Mice with tumors >2,000 mm^3 for 2 consecutive measurements or mice with tumors which formed open ulcers were removed from the study. Tumor volume was calculated using the formula (0.52)×(Length)×(Width^2). In study 3, tumor-free mice were re-challenged with CT-26 tumor cells as described above, on the opposite flank from the original inoculation site and tumor growth was monitored, as described above. All studies were conducted in accordance with the GSK Policy on the Care, Welfare and Treatment of Laboratory Animals and were reviewed by the Institutional Animal Care and Use Committee at GSK.
For studies 1 and 2, to determine significance of tumor growth inhibition, tumor volumes at 11 study 1) or 15 (study 2) days after first dose were compared between the different treatment groups. Prior to the analysis, tumor volumes were natural log transformed due to the inequality of variance in the different treatment groups. ANOVA followed by pair-wise comparison was then carried out on the log transformed data. SAS 9.3 and R 3.0.2 analysis software was used. Kaplan-Meier (KM) method was carried out to estimate the survival probability of different treatment groups at a given time. The event for survival analysis was tumor volume of 2000 mm^3 or tumor ulceration, whichever came first. The exact time to cut-off volume was estimated by fitting a linear line between log tumor volume and day of two observations, the first observation that exceed the cut-off volume and the one observation that immediately preceded the cut-off volume. The median time to endpoint and its corresponding 95% confidence interval was calculated. Whether or not KM survival curves were statistically different between any two groups was then tested by log-rank test. The raw p-value, as well as the false discovery rate (FDR) adjusted p-values, from the comparisons of days to events by survival analysis and the comparisons of log transformed tumor volume at indicated days between treatment groups was determined. […]

Question: Which results are given for `CCCCCCCCCCC[C@H](CC(=O)N[C@H]1[C@H](OC[C@H](NC(=O)C[C@@H](CCCCCCCCCCC)OCCCCCCCCCC)C(=O)O)O[C@H](CO)[C@@H](OP(=O)(O)O)[C@@H]1OC(=O)C[C@@H](CCCCCCCCCCC)OCCCCCCCCCC)OCCCCCCCCCC` [CRX-601]?
Answer: tumor status of single mouse remaining on study (study 1, 10 ug intratumoral group, day 42): tumor-free; tumor growth inhibition compared to vehicle (study 1, 10 ug/mouse intratumoral twice per week, 6 doses, 11 days after the initial dose, p-values 0.05): statistically significant; tumor-free mice among mice remaining on study (study 1, 50 ug intratumoral group, day 42): Three of the four; tumor volume of remaining tumor-bearing mouse (study 1, 50 ug intratumoral group, fourth mouse, day 42): 854.19 mm^3; increase in survival compared to vehicle (study 1, 50 ug intratumoral single dose, by day 42 post CT26 inoculation, p-values<=0.05): statistically significant; tumor growth inhibition compared to vehicle (study 1, 50 ug/mouse intratumoral single dose, 11 days after the initial dose, p-values 0.05): statistically significant; anti-tumor activity (tumor growth inhibition over time) (study 1, intratumoral dosing 0.1, 1, 10 ug/mouse twice per week x6 or 50 ug single dose): dose-dependent anti-tumor activity; tumor volume of single mouse remaining on study (study 2, 10 ug intravenous group, day 32): 188.0 mm^3; tumor growth inhibition compared to vehicle (study 2, 10 ug/mouse intravenous twice per week, 6 doses, 15 days after the initial dose, p-values<=0.05): statistically significant; tumor-free mice among mice remaining on study (study 2, 100 ug intravenous group, day 32): One of the three; tumor volumes of remaining tumor-bearing mice (study 2, 100 ug intravenous group, day 32, individual mice): 1500.49 mm^3 and 962.61 mm^3; increase in survival compared to vehicle (study 2, 100 ug intravenous single dose, day 32 post CT-26 inoculation, p-values<=0.05): statistically significant increase; tumor growth inhibition compared to vehicle (study 2, 100 ug/mouse intravenous single dose, 15 days after the initial dose, p-values<=0.05): statistically significant; anti-tumor activity (tumor growth inhibition over time) (study 2, intravenous dosing 1, 10 ug/mouse twice per week x6 or 100 ug single dose): dose-dependent anti-tumor activity; CT26 tumor growth on re-challenge (study 3, fully regressed tumor-free mice re-challenged on day 80, opposite flank, vs naive control mice): rejected with no tumor growth; mice showing full tumor regressions (study 3 Group 2, 25 ug/mouse IV once per week x3): 5 out of 10; increase in survival compared to control Group 1 (study 3 Group 2, 25 ug/mouse IV once per week x3, 80 days after the first dose, p-values<=0.05): statistically significant; tumor growth inhibition compared to control Group 1 (study 3 Group 2, 25 ug/mouse intravenous in 0.5% Glycerol/4% dextrose once per week x3 (+Rat IgG1), 12 days after the initial dose, p-values<=0.05): statistically significant; increase in survival compared to control Group 5 (study 3 Group 7, 25 ug/mouse intratumoral DOPC/CHOL liposome once per week x3, 80 days after the first dose, p-values<=0.05): statistically significant; tumor growth inhibition compared to control Group 5 (study 3 Group 7, 25 ug/mouse intratumoral in DOPC/CHOL liposome once per week x3 (+Rat IgG1), 12 days after the initial dose, p-values<=0.05): statistically significant
